# Reference: article PMC8765048 (JCI Insight, 2022)
# Legend:
# Experiment in all cases: microbe, parasite or virus in culture
# Assay type in all cases: cell-based
# [1] = tested on: SARS-CoV-2 variants; conditions: Severe acute respiratory syndrome coronavirus 2, Vero C1008
# [2] = tested on: SARS-CoV-2 variants; conditions: Severe acute respiratory syndrome coronavirus 2, Calu-3
# [3] = tested on: SARS-CoV-2; conditions: Severe acute respiratory syndrome coronavirus 2; read-out: IC50 values against all viral variants and in all examined cell types
smiles,measurement,setting,value
"CCC(CC)COC(=O)[C@H](C)N[P@](=O)(OC[C@H]1O[C@@](C#N)(c2ccc3c(N)ncnn23)[C@H](O)[C@@H]1O)Oc1ccccc1 [Remdesivir, remdesivir, reference compound]",IC50,[1],2100 ± 516 nM
same,IC90,[1],4450 ± 829 nM
same,IC50,[2],2290 ± 449 nM
same,IC90,[2],7200 ± 1000 nM
"NC(=O)c1cn([C@@H]2O[C@H](CO)[C@@H](O)[C@H]2O)c2ncnc(N)c12 [Sangivamycin, sangivamycin]",IC50,[1],42 ± 8.8 nM
same,IC90,[1],220 ± 42.1 nM
same,IC50,[2],64.3 ± 4.7 nM
same,IC90,[2],255 ± 46.1 nM
same,IC50,[3],14 to 82 nM
